In data set [1] the test system is calcium- and phospholipid dependent protein kinase (protein kinase C). Particulars: in vitro; cited from earlier work.
Data set [2] shares this test system. Particulars: in vivo; cited from earlier work.
The subject of data set [3] is antiproliferative activity of cis-diaminedichloroplatinum II (cis-DDP). The following applies: in vitro, with cis-DDP; cited from earlier work.
For data set [4] the test system is unchanged. Particulars: in vivo, with cis-DDP; cited from earlier work.
The conditions of data set [5]: pharmaceutically acceptable solvents; cited from earlier work.
The nature of data set [6]: Stability to Human Plasma (HPLC, 37° C.). The format is in vitro ADME. The following applies: for half-life: 0.02 ml of 6.3 mg/ml prodrug solution added to 2.5 ml plasma. As for the experimental part: Freshly prepared plasma (2.5 ml) was incubated at 37° C. and 0.02 ml of a 6.3 mg/ml solution of the prodrug compound in water was added. Aliquots of plasma were taken for HPLC analysis at zero time and at intervals thereafter. Samples were quenched with chilled methanol, the resulting precipitate was centrifuged at 4° C. at 800 rpm for 5 minutes, and the supernatant was analysed by HPLC.

Structures can show the parent of a compound that is named as a salt. Where two headings read alike, the source gives them in different places.

Regarding `O=c1c(O)c(-c2ccc(O)c(O)c2)oc2cc(O)cc(O)c12` [Quercetin, 3,3',4',5,7-pentahydroxyflavone], the “inhibition of protein kinase C activity” value in data set [1] and in data set [2] was “inhibit the activity” in each case. In addition, the “enhancement of antiproliferative activity of cis-DDP” value in data set [3] and in data set [4] was “synergistically enhances the antiproliferative activity” throughout. In addition, the solubility entry in data set [5] is recorded as “limited solubility”.

Regarding “3'/4'-((N-Carboxymethyl)carbamoyloxy)-3,4'(3'),5,7-tetrahydroxy-flavone, N-Methyl-D-glucamine salt”, the “pH of solution in water” value (10 mg/ml solution in water) is recorded as “approximately 7”. Also, the “period for which the solution is stable” value (10 mg/ml solution in water, -20° C.) is given as “at least 12 weeks”. Besides, the “pH of solution in dextrose” value (diluted into dextrose, final prodrug concentration 1 mg/ml) is recorded as “approximately 6”.

Broadly, the half-life is the time in which the quantity being followed falls by half. Consider `O=C(O)CNC(=O)Oc1ccc(-c2oc3cc(O)cc(O)c3c(=O)c2O)cc1O` [4' carbamate ester], for which, in data set [6], the “conversion into Quercetin” value is listed as “converted into Quercetin” and the half-life is roughly 1 h.

In the case of `O=C(O)CNC(=O)Oc1cc(-c2oc3cc(O)cc(O)c3c(=O)c2O)ccc1O` [3' carbamate ester, 3'-((N-Carboxymethyl)carbamoyloxy)-3,4',5,7-tetrahydroxyflavone, N-Methyl-D-glucamine salt], in data set [6], the “conversion into Quercetin” value is on record as “converted into Quercetin” and the half-life is roughly 1 h.

(Values after US6258840A, “Analogues or derivatives of quercetin (prodrugs)” (Cobra Therapeutics Limited, priority 1996, dated 2001).)
